Measurements reported in patent US11129870B2, “Compositions and methods for uncoupling TrkB receptor from PLC gamma 1 for the treatment of epilepsy and anxiety-like disorder” (DUKE UNIVERSITY, priority 2010, dated 2021).
Where no end group is shown, it is not given here. [ ]: non-standard residue; d: D form. pY = N[C@@H](Cc1ccc(OP(=O)(O)O)cc1)C(=O)O

Experiments:
[1] = tested on: TrkB-mediated activation of PLCγ1; experiment: BDNF-mediated activation of PLCγ1 (p-PLCγ1 Y783 western blot) in cultured cortical neurons; type: cell-based, rat; conditions: for BDNF-mediated increase of p-PLC γ-1/PLC γ-1 ratio (quantified, FIG. 10): 10-120 min pretreatment, 120 min p<0.05; for inhibition of BDNF-mediated increased p-PLCγ1 783: preincubation 60-120 min, BDNF 10 ng/ml
[2] = tested on: kainic acid-induced status epilepticus; experiment: Status epilepticus induced by kainic acid infusion into amygdala, peptide given i.v. before KA; type: in vivo, mouse
Method: FIG. 15: Continuous limbic and tonic-clonic seizures (status epilepticus) were induced in awake, adult male WT C57BL/6 mice weighing 20-25 g by unilateral stereotaxic microinjection of 0.3 μg kainic acid (KA) in a volume of 0.2 μl PBS, pH 7.4, into the right basolateral amygdala nucleus. Seven to nine days prior to KA infusion, a guide cannula was placed in the right amygdala under pentobarbital anesthesia using the following stereotactic coordinates relative to bregma: AP, −0.94 mm; ML, −2.85 mm; and DV, −3.75 mm (AP, anterior-posterior; ML, medio-lateral; DV, dorso-ventral); additionally, a bipolar EEG recording electrode was implanted into contralateral dorsal hippocampus: AP, −2.00 mm; ML, 1.60 mm; and DV, −1.53 mm. Phospho-Tat-pTrkBY816 or Scr-phospho-Tat-pTrkBY816 was injected intravenously through tail vein before amygdala KA infusion. EEG and mice behavior were recorded by EEG recording device and video camera respectively for 45 min following infusion of KA. Design of the time course and dose response experiments are presented in top and bottom panels respectively.
As described previously, microinjection of kainic acid into the right amygdala of awake, adult mice reliably induces continuous limbic and clonic motor seizures accompanied by electrographic evidence of seizure activity as detected by EEG recording electrode in the contralateral hippocampus. Status epilepticus is terminated by intraperitoneal administration of diazepam 45 minutes following infusion of kainic acid.
We asked whether intravenous infusion of Tat-pTrkBY816 via tail vein inhibited status epilepticus induced by microinjection of kainic acid into the right amygdala (FIG. 15). […] The inhibition of status epilepticus was also dose dependent. […] Whereas a dose of 1 mg/kg of Tat-pTrkBY816 was ineffective, doses of 3 mg/kg and 10 mg/kg effected a striking inhibition such that status epilepticus was prevented in at least 70% of animals (FIG. 17, top). By contrast, kainic acid induced status epilepticus in all animals pretreated with the control scr-Tat-pTrkBY816 regardless of dose (FIG. 17, top).
(§1) Surgery and microinfusion studies provided in Examples 10-14 were performed as described here. Surgery and microinfusion of KA into right amygdala of adult mice was performed as previously described (Liu, G. et al., (2013) Neuron 79:31-38). Briefly, mice were anesthetized with pentobarbital (60 mg/kg, intraperitoneally [i.p.]) and placed in a stereotaxic frame. A guide cannula was stereotactically placed above the right amygdala (coordinates from bregma: AP=−1.2 mm; ML=3.0 mm). A bipolar electrode was placed in the left dorsal hippocampus (coordinates from bregma: AP=−2.0 mm; ML=−1.6 mm; DV=−1.5 mm). A ground electrode connected to a screw was placed in the skull above the cerebellum. After a postoperative recovery period of 7 days, the animal was gently restrained and an infusion cannula was inserted into the right amygdala through the guide cannula at the depth of 3.7 mm below dura. Either KA (0.3 μg in 0.5 μl PBS) or vehicle control (0.5 μl of PBS) was infused into the right basolateral amygdala at the rate of 0.11 μl per minute. The infusion cannula was left in the right amygdala for two additional minutes before being withdrawn from the guide cannula. Animals were housed individually for time locked electroencephalogram (EEG) telemetry and video monitoring with food and water ad libitum.
Emergence of SE was typically evident in EEG recordings 5-10 min after KA infusion. The behavioral seizures associated with electrographic seizures typically consisted of immobility, followed by facial automatisms, unilateral or bilateral forelimb clonus, and whole body clonus. Tonic-clonic seizures with loss of posture and jumping also occurred during the seizures (Mouri, G. et al., (2008) Brain Res 1213:140-151). For experiments in which p816 or Scr was administered prior to SE, mice were monitored for 45 min following KA infusion. […]

[3] = tested on: spontaneous recurrent seizures; experiment: SE-induced epilepsy: spontaneous recurrent seizures by video-EEG after 3 days of treatment following KA-SE; type: in vivo, mouse; conditions: for animals with initial spontaneous seizure within 3 days following SE: 10 mg/kg i.v. x3, n=8; for number of spontaneous seizures: n=8, mean±SEM; for spontaneous recurrent seizures per animal (range): for pY816 the six animals with seizures
Method: as §1
Emergence of SE was typically evident in EEG recordings 5-10 min after KA infusion. The behavioral seizures associated with electrographic seizures typically consisted of immobility, followed by facial automatisms, unilateral or bilateral forelimb clonus, and whole body clonus. Tonic-clonic seizures with loss of posture and jumping also occurred during the seizures (Mouri, G. et al., (2008) Brain Res 1213:140-151). For experiments in which p816 or Scr was administered prior to SE, mice were monitored for 45 min following KA infusion. EEG patterns consistent with electrographic SE included any of the following: 1. discrete electrographic seizures; 2. waxing and waning epileptiform activity; 3. continuous, high amplitude, rapid spiking; 4. periodic epileptiform discharges on a relatively flat background as described by Treiman, D. M. et al., (1990) Epilepsy Res 5:49-60 and Walton, et. al., (1988) Exp Neurol 101:267-275. Behavioral patterns consistent with seizures included Classes 3-6 as described in the following section (Racine, R. J. (1972) Electroencephalogr Clin Neurophysiol 32:281-294; Borges, K. et al., (2003) Exp Neurol 182:21-34). The duration of behavioral and electrographic SE were determined by analyses of video and EEG data by trained observers blinded to treatment of mice. A similar method was used in experiments examining effects of mutations (trkB^PLC/PLC and PLCγ1^+/−) on SE induced by KA. For experiments in which p816 or Scr was administered following SE, diazepam (10 mg/kg, i.p.) was administered 40 minutes after the onset of SE followed by lorazepam (6 mg/kg, i.p.) one hour later to suppress SE and limit the mortality and morbidity of this model. Animals underwent continuous video-EEG monitoring 24 hr per day, 7 days per week for first two weeks post-SE (day 1-14). At the end of the second week post-SE, monitoring was discontinued and animals were returned to home cages. After a two-week interval, monitoring was resumed for an additional two weeks (day 29-42). Spontaneous recurrent seizures were identified by review of video-EEG files by independently by each of two trained readers blinded to treatment of mice. The consistency of identifying SRS between readers was ˜90%; in instances in which readers disagreed, the events were excluded from this study. SRS was defined electrographically as high frequency (>5 Hz), high amplitude (>2×baseline) rhythmic epileptiform activity with a minimal duration of 5 s and behaviorally with video-monitoring (see behavioral-seizure scoring). […]

Substance: YGRKKRRQRRR-LQNLAKASPVpYLDI (YGRKKRRQRRRLQNLAKASPV[pY]LDI) [pY816]
- inhibition of BDNF-mediated activation of PLCγ1 (pPLCγ1 783 immunoreactivity) ([1]; 0.1 μM, 90 mins preincubation, BDNF 10 ng/ml 15 mins): did not inhibit
- inhibition of BDNF-induced increase of pPLCγ1 783 ([1]; 1 μM, 90 mins preincubation, BDNF 10 ng/ml 15 mins): limited the BDNF-induced increase of pPLCγ1 783 in a concentration dependent manner
- BDNF-mediated increase of p-PLC γ-1/PLC γ-1 ratio (quantified, FIG. 10) ([1]; 10 μM): inhibited the BDNF-mediated increase of p-PLC γ-1/PLC γ-1 ratio in a time dependent manner
- inhibition of BDNF-mediated PLCγ1 activation ([1]; 10 μM, 60 min preincubation, compared to Scr): 68.2%
- inhibition of BDNF mediated PLCγ1 activation ([1]; 10 μM, 90 min preincubation, compared to Scr): 79.3%
- inhibition of BDNF-induced increase of pPLCγ1 783 ([1]; 10 μM, 90 mins preincubation, BDNF 10 ng/ml 15 mins): limited the BDNF-induced increase of pPLCγ1 783 in a concentration dependent manner
- inhibition of BDNF-mediated PLCγ1 activation ([1]; 10 μM, 120 min preincubation, compared to Scr): 94.5%
- inhibition of BDNF-mediated increased p-PLCγ1 783 ([1]; 10 μM): inhibited BDNF-mediated increased p-PLCγ1 783
- inhibition of status epilepticus ([2]; 1 mg/kg i.v., six hours prior to KA): ineffective
- animals in which status epilepticus was prevented ([2]; 3 mg/kg i.v., six hours prior to KA): at least 70%
- earliest time at which inhibitory effects were evident following i.v. infusion ([2]; 10 mg/kg i.v.): 10 min
- inhibition of status epilepticus remitted by ([2]; 10 mg/kg i.v.): ≤ 72 h
- peak of inhibition of status epilepticus (pretreatment interval) ([2]; 10 mg/kg i.v.): 0.5 h
- persistence of inhibition of status epilepticus ([2]; 10 mg/kg i.v.): 24 h
- return of seizure inhibition to control levels by ([2]; 10 mg/kg i.v.): ≤ 72 h
- inhibition of status epilepticus (time course) ([2]; 10 mg/kg i.v., 0.16-72 hr prior to KA): striking time dependent inhibition of status epilepticus
- status epilepticus at 0.5 hour pretreatment ([2]; 10 mg/kg i.v., 0.5 hour prior to KA): eliminated altogether
- maximal inhibition of convulsive motor and electrographic seizures ([2]; 10 mg/kg i.v., 6 hr prior to KA): 90%
- latency to the onset of status epilepticus ([2]; 10 mg/kg i.v., compared to scrambled control peptide 10 mg/kg): prolonged
- animals in which status epilepticus was prevented ([2]; 10 mg/kg i.v., six hours prior to KA): at least 70%
- increase of latency to onset of status epilepticus ([2]; 10 mg/kg i.v., six hours prior to KA, compared to Scr-phospho-Tat-pTrkBY816): 3 fold
- inhibition of convulsive motor and electrographic seizures persisting for 24 hr ([2]; 10 mg/kg i.v., up to 24 hr prior to KA): 80-90%
- onset of inhibition of status epilepticus (pretreatment interval) ([2]; 10 mg/kg i.v., earliest time tested): 0.16 h
- latency to onset of behavioral status epilepticus (dose response) ([2]; 1, 3, 10 mg/kg i.v., six hours prior to KA): increased the latency to onset of behavioral status epilepticus in a dose dependent fashion
- latency to the onset of the first spontaneous seizure ([3]; 10 mg/kg i.v. immediately, 24 hr and 48 hr after SE, compared to control): delayed
- animals with initial spontaneous seizure within 3 days following SE [3]: single
- reduction in the number of spontaneous seizures compared to Scr ([3]; days 1-14 after SE): 86%
- number of spontaneous seizures ([3]; days 1-14 after SE): 2.4±0.6
- reduction in the number of spontaneous seizures compared to Scr ([3]; days 29-42 after SE): 90%
- number of spontaneous seizures ([3]; days 29-42 after SE): 1.5±0.4
- animals that exhibited no seizures ([3]; days 29-42 after SE, of eight treated): two
- spontaneous recurrent seizures per animal (range) ([3]; days 29-42 after SE): 1-3 seizures

Substance: YGRKKRRQRRRLVApYQLKIAPNDLS (YGRKKRRQRRRLVA[pY]QLKIAPNDLS) [Scr, reference compound]
- BDNF-mediated increase of p-PLC γ-1/PLC γ-1 ratio (quantified, FIG. 10) ([1]; 10 μM): ineffective
- inhibition of BDNF-mediated increased p-PLCγ1 783 ([1]; 10 μM): no inhibition was evident
- animals in which kainic acid induced status epilepticus ([2]; 10 mg/kg i.v. at different times prior to KA): 23 of 24
- KA-induced seizures following i.v. infusion of peptide ([2]; i.v. prior to KA infusion into amygdala): prolonged convulsive motor and electrographic seizures
- animals in which kainic acid induced status epilepticus ([2]; regardless of dose (1, 3, 10 mg/kg), six hours prior to KA): all animals
- animals with initial spontaneous seizure within 3 days following SE [3]: 5 of 8
- number of spontaneous seizures ([3]; days 1-14 after SE): 18.1±1.7
- number of spontaneous seizures ([3]; days 29-42 after SE): 16.5±3.5
- spontaneous recurrent seizures per animal (range) ([3]; days 29-42 after SE): 7-36 seizures
